From PubChem BioAssay (NCI)
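Each compound was tested at five concentrations against cells in 96-well plates for 48 hours. TGI is the concentration that stops growth completely.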

Tests used:
Experiment in all cases: DTP human tumour cell line panel, 48 h
786-0 renal = tested on: 786-0 renal
A498 renal = tested on: A498 renal
A549 NSCLC = tested on: A549 NSCLC
ACHN renal = tested on: ACHN renal
BT-549 breast = tested on: BT-549 breast
CAKI-1 renal = tested on: CAKI-1 renal
CCRF-CEM leukemia = tested on: CCRF-CEM leukemia
COLO 205 colon = tested on: COLO 205 colon
DU-145 prostate = tested on: DU-145 prostate
EKVX NSCLC = tested on: EKVX NSCLC
HCT-116 colon = tested on: HCT-116 colon
HCT-15 colon = tested on: HCT-15 colon
HL-60(TB) leukemia = tested on: HL-60(TB) leukemia
HOP-62 NSCLC = tested on: HOP-62 NSCLC
HS 578T breast = tested on: HS 578T breast
HT29 colon = tested on: HT29 colon
IGROV1 ovarian = tested on: IGROV1 ovarian
K-562 leukemia = tested on: K-562 leukemia
KM12 colon = tested on: KM12 colon
LOX IMVI melanoma = tested on: LOX IMVI melanoma
M14 melanoma = tested on: M14 melanoma
MCF7 breast = tested on: MCF7 breast
MDA-MB-231 breast = tested on: MDA-MB-231 breast
MDA-MB-435 = tested on: MDA-MB-435
MDA-N = tested on: MDA-N
MOLT-4 leukemia = tested on: MOLT-4 leukemia
NCI-H226 lung = tested on: NCI-H226 lung
NCI-H23 lung = tested on: NCI-H23 lung
NCI-H460 lung = tested on: NCI-H460 lung
NCI-H522 lung = tested on: NCI-H522 lung
NCI/ADR-RES ovarian = tested on: NCI/ADR-RES ovarian
OVCAR-3 ovarian = tested on: OVCAR-3 ovarian
OVCAR-4 ovarian = tested on: OVCAR-4 ovarian
OVCAR-5 ovarian = tested on: OVCAR-5 ovarian
OVCAR-8 ovarian = tested on: OVCAR-8 ovarian
PC-3 prostate = tested on: PC-3 prostate
RPMI-8226 leukemia = tested on: RPMI-8226 leukemia
SF-268 CNS = tested on: SF-268 CNS
SF-295 CNS = tested on: SF-295 CNS
SF-539 CNS = tested on: SF-539 CNS
SK-MEL-2 melanoma = tested on: SK-MEL-2 melanoma
SK-MEL-28 melanoma = tested on: SK-MEL-28 melanoma
SK-MEL-5 melanoma = tested on: SK-MEL-5 melanoma
SK-OV-3 ovarian = tested on: SK-OV-3 ovarian
SN12C renal = tested on: SN12C renal
SNB-19 CNS = tested on: SNB-19 CNS
SNB-75 CNS = tested on: SNB-75 CNS
SR leukemia = tested on: SR leukemia
SW-620 colon = tested on: SW-620 colon
T-47D breast = tested on: T-47D breast
TK-10 renal = tested on: TK-10 renal
U251 CNS = tested on: U251 CNS
UACC-257 melanoma = tested on: UACC-257 melanoma
UACC-62 melanoma = tested on: UACC-62 melanoma
UO-31 renal = tested on: UO-31 renal
HCC-2998 colon = tested on: HCC-2998 colon
MALME-3M melanoma = tested on: MALME-3M melanoma
RXF 393 renal = tested on: RXF 393 renal

Q: What does the source list for c1ccc(NNC2=NCCN2)cc1?
A: TGI (786-0 renal): > 100 µM; TGI (A498 renal): > 100 µM; TGI (A549 NSCLC): > 100 µM; TGI (ACHN renal): > 100 µM; TGI (BT-549 breast): > 100 µM; TGI (CAKI-1 renal): > 100 µM; TGI (CCRF-CEM leukemia): > 100 µM; TGI (COLO 205 colon): > 100 µM; TGI (DU-145 prostate): > 100 µM; TGI (EKVX NSCLC): > 100 µM; TGI (HCT-116 colon): > 100 µM; TGI (HCT-15 colon): > 100 µM; TGI (HL-60(TB) leukemia): > 100 µM; TGI (HOP-62 NSCLC): > 100 µM; TGI (HS 578T breast): > 100 µM; TGI (HT29 colon): > 100 µM; TGI (IGROV1 ovarian): > 100 µM; TGI (K-562 leukemia): > 100 µM; TGI (KM12 colon): > 100 µM; TGI (LOX IMVI melanoma): > 100 µM; TGI (M14 melanoma): > 100 µM; TGI (MCF7 breast): > 100 µM; TGI (MDA-MB-231 breast): > 100 µM; TGI (MDA-MB-435): > 100 µM; TGI (MDA-N): > 100 µM; TGI (MOLT-4 leukemia): > 100 µM; TGI (NCI-H226 lung): > 100 µM; TGI (NCI-H23 lung): > 100 µM; TGI (NCI-H460 lung): > 100 µM; TGI (NCI-H522 lung): > 100 µM; TGI (NCI/ADR-RES ovarian): > 100 µM; TGI (OVCAR-3 ovarian): > 100 µM; TGI (OVCAR-4 ovarian): > 100 µM; TGI (OVCAR-5 ovarian): > 100 µM; TGI (OVCAR-8 ovarian): > 100 µM; TGI (PC-3 prostate): > 100 µM; TGI (RPMI-8226 leukemia): > 100 µM; TGI (SF-268 CNS): > 100 µM; TGI (SF-295 CNS): > 100 µM; TGI (SF-539 CNS): > 100 µM; TGI (SK-MEL-2 melanoma): > 100 µM; TGI (SK-MEL-28 melanoma): > 100 µM; TGI (SK-MEL-5 melanoma): > 100 µM; TGI (SK-OV-3 ovarian): > 100 µM; TGI (SN12C renal): > 100 µM; TGI (SNB-19 CNS): > 100 µM; TGI (SNB-75 CNS): > 100 µM; TGI (SR leukemia): > 100 µM; TGI (SW-620 colon): > 100 µM; TGI (T-47D breast): > 100 µM; TGI (TK-10 renal): > 100 µM; TGI (U251 CNS): > 100 µM; TGI (UACC-257 melanoma): > 100 µM; TGI (UACC-62 melanoma): > 100 µM; TGI (UO-31 renal): > 100 µM

Q: What does the source list for O=C1c2scc(-c3ccccc3)c2-n2cccc21?
A: TGI (786-0 renal): 28 µM; TGI (A498 renal): 5.02 µM; TGI (A549 NSCLC): 42.6 µM; TGI (ACHN renal): > 100 µM; TGI (BT-549 breast): > 100 µM; TGI (CAKI-1 renal): 31.9 µM; TGI (CCRF-CEM leukemia): 60.8 µM; TGI (COLO 205 colon): 31.7 µM; TGI (DU-145 prostate): > 100 µM; TGI (EKVX NSCLC): 25.4 µM; TGI (HCC-2998 colon): 59.5 µM; TGI (HCT-116 colon): 26.2 µM; TGI (HCT-15 colon): > 100 µM; TGI (HOP-62 NSCLC): 38.1 µM; TGI (HS 578T breast): 24 µM; TGI (HT29 colon): 25.3 µM; TGI (IGROV1 ovarian): 17.7 µM; TGI (KM12 colon): 27.3 µM; TGI (LOX IMVI melanoma): 27.9 µM; TGI (M14 melanoma): 33.3 µM; TGI (MALME-3M melanoma): 30.7 µM; TGI (MCF7 breast): 52.9 µM; TGI (MDA-MB-231 breast): 31.4 µM; TGI (MDA-MB-435): 29 µM; TGI (MDA-N): 50 µM; TGI (MOLT-4 leukemia): 37.9 µM; TGI (NCI-H226 lung): 25 µM; TGI (NCI-H460 lung): > 100 µM; TGI (NCI-H522 lung): 25.2 µM; TGI (NCI/ADR-RES ovarian): 35.4 µM; TGI (OVCAR-3 ovarian): 38.1 µM; TGI (OVCAR-4 ovarian): > 100 µM; TGI (OVCAR-5 ovarian): 48 µM; TGI (OVCAR-8 ovarian): 27.4 µM; TGI (PC-3 prostate): 41.2 µM; TGI (RPMI-8226 leukemia): 34.1 µM; TGI (RXF 393 renal): 29.9 µM; TGI (SF-268 CNS): 30.3 µM; TGI (SF-295 CNS): 36 µM; TGI (SK-MEL-2 melanoma): 30.7 µM; TGI (SK-MEL-28 melanoma): 28.8 µM; TGI (SK-MEL-5 melanoma): 30 µM; TGI (SK-OV-3 ovarian): 44.7 µM; TGI (SN12C renal): 74.8 µM; TGI (SNB-19 CNS): 42 µM; TGI (SNB-75 CNS): 27.2 µM; TGI (SR leukemia): 47.2 µM; TGI (SW-620 colon): 34.1 µM; TGI (T-47D breast): 80.9 µM; TGI (TK-10 renal): > 100 µM; TGI (U251 CNS): 27.7 µM; TGI (UACC-257 melanoma): > 100 µM; TGI (UACC-62 melanoma): 55.6 µM; TGI (UO-31 renal): > 100 µM
